Literature values, collected in patent US11154585B2, “Orodispersible film composition comprising enalapril for the treatment of hypertension in a pediatric population” (PHARMATHEN S.A., priority 2017, dated 2021).
Where a name gives a salt, the structure may show the parent alone. Read-outs that look alike come from different tables or passages of the source.

Solubility (alcohol): soluble | Solubility (methanol and dimethylformamide): freely soluble | Solubility (nonpolar organic solvents): practically insoluble | Solubility (semi polar organic solvents): slightly soluble | Solubility (water): sparingly soluble
SMILES: CCOC(=O)[C@H](CCc1ccccc1)N[C@@H](C)C(=O)N1CCC[C@H]1C(=O)O [Enalapril maleate]
